pEC50: −log10 of the molar value. Like-named read-outs stand apart in the source and are kept apart here.
Tests used:
[1] = system: inflammatory cytokines IL-6 and IL-12; assay: Anti-asthma pharmacodynamic experiment: inflammatory cytokines in bronchoalveolar lavage fluid (ELISA); type: in vivo, female BALB/c mice; conditions: for Effects on inflammatory cytokines in bronchoalveolar lavage fluid of mice: compared with the model group
[2] = target: T1, mineralocorticoid receptor (MR) (Homo sapiens, UniProt P08235); assay: Assay for agonist activity on mineralocorticoid receptor (luciferase reporter, HEK293 cells transfected with pBIND-MR plasmid); type: cell-based; conditions: for Target selectivity MR/GR: ratio of EC50 values
T1 sequence (P08235 726-984): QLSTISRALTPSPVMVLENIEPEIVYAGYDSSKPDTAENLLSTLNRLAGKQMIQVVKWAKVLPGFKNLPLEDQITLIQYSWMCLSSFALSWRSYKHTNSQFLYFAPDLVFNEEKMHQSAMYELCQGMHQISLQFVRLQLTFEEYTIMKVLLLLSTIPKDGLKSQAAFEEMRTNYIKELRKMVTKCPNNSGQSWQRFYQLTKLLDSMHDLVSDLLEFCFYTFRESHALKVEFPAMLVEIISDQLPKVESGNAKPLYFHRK
Summary of the method: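 HEK293 cells transiently transfected with pBIND-MR or pBIND-PR, seeded in phenol red-free DMEM with 5% charcoal-stripped serum. Compounds tested as 12-point 4-fold dilutions from 50 µM in duplicate, 0.1% DMSO blank. Luciferase luminescence read, EC50 by nonlinear fit.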

IL-17 = assay: Psoriasis experiment (imiquimod model): inflammatory cytokine in serum (ELISA); type: in vivo, mice; conditions: for level of IL-17 / inflammatory cytokines in psoriasis model mice: compared with the model group
Method: (§1) Positive control drug: Fluticasone Propionate Cream (specification: 0.05% × 15 g, Zhejiang Xianju Pharmaceutical Co. Ltd., Lot No. 211106), stored at room temperature protected from light until use.
(§2) Adult mice were selected, and the skin of 2 cm × 3 cm on the back of mice was locally depilated. The mice in the model group and drug administration group were applied with 62.5 mg of 5% imiquimod cream on their back for modeling, while the mice in the blank control group were applied with medical petroleum jelly on their back daily. The above procedures were performed once a day for 7 consecutive days.
(§3) The mice in the drug administration group were applied with the corresponding drugs on their backs daily at a dose of 0.2 g per mouse, while the blank control group and the model group were only applied with 0.2 g of the test sample drug matrix. One hour after drug administration, the drugs were wiped off with sterile cotton swabs, followed by the application of imiquimod. The above procedures were performed once a day for 7 consecutive days.
After the PASI scoring on day 8 of modeling, blood was collected from the orbital sinus of mice and centrifuged at 3000 rpm for 10 min. The supernatant was extracted to measure the level of IL-17. All procedures were performed following the instructions of the ELISA kit.
(§4) Statistical analysis was performed using SPSS software, and the results were expressed as mean ± standard deviation. One-way ANOVA was used for intergroup comparisons. For data with homogeneous variance, the LSD test was used; for data with heterogeneous variance, the Dunnett-t test was used. A value of P < 0.05 was considered statistically significant.

asthma model mice = assay: Anti-asthma pharmacodynamic experiment: airway hyperresponsiveness (Penh) after methacholine challenge; type: in vivo, female BALB/c mice; conditions: for Effects on airway hyperresponsiveness (Penh values) in mice: compared with the model group
Method: Pharmacological Example 4: Pharmacodynamic Experiment on Anti-Asthma
The suspensions were stored at room temperature protected from light until use.
Positive control drug: Budesonide Suspension for Inhalation (specification: 2 mL: 1 mg; AstraZeneca Inc.; Lot No. : 327392) was diluted with injection-grade sodium chloride solution to 0.3 mg/ml as the positive control drug, and stored at room temperature protected from light until use.
Sixty female BALB/c mice underwent a one-week adaptive feeding period. Ten mice were randomly selected as the blank control group, while 50 mice were selected to establish asthma models.
From days 21 to 23 after sensitization, the mice in the model group and drug administration group were exposed to a 30-minute aerosol challenge with 5% OVA, while the mice in the blank control group were exposed to normal saline aerosol for the same duration.
Airway responsiveness was measured in all groups of mice after the last challenge. The mice were placed into a plethysmography chamber, and baseline Penh values were recorded. Subsequently, the mice were challenged with aerosolized methacholine at concentrations from low to high of 0, 6.25, and 12.5 mg/mL, with an aerosol volume of 100 µ L each time for 60 s. […] Penh values were then recorded for 3 min and averaged to compare the airway responsiveness of each group of mice.
Statistical analysis was performed using SPSS software. Measurement data were expressed as mean ± standard deviation. One-way ANOVA was used for intergroup comparisons. For data with homogeneous variance, LSD test was used; for data with heterogeneous variance, Dunnett-t test was used. A value of P < 0.05 was considered statistically significant.

[3] = Determination of stability in plasma in vitro, human plasma (LC-MS/MS); type: in vitro ADME; conditions: same experimental conditions (human and mouse plasma)
Summary of the method: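 Compound at 1 µM final in human or mouse plasma (N = 2) at 37 °C; aliquots taken at 0 and preset time points into ice-cold precipitant with internal standard. Remaining compound measured semi-quantitatively by LC-MS/MS as analyte/internal-standard peak-area ratio.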

psoriasis model mice = assay: Psoriasis experiment (imiquimod model): skin lesion (PASI) score; type: in vivo; conditions: for PASI scores: compared with the model group
Method: as §1, §2, §3
Referring to the clinical Psoriasis Area and Severity Index (PASI) scoring criteria, erythema, scaling, and thickness at the skin lesion sites were evaluated on a 0-4 scale on day 8 of modeling, and the total score was obtained by summing the three items.
• (1) Erythema: a score of 0 points indicates no erythema, a score of 1 point indicates erythema appearing light red, a score of 2 points indicates erythema appearing red, a score of 3 points indicates erythema appearing dark red, and a score of 4 points indicates erythema appearing extremely deep red; • (2) Scaling: a score of 0 points indicates no scaling on the surface, a score of 1 point indicates partial skin lesions covered with scaling, a score of 2 points indicates most skin lesions covered with scaling, a score of 3 points indicates almost all skin lesions covered with scaling in layers, and a score of 4 points indicates all skin lesions covered with scaling; • (3) Thickness: a score of 0 points indicates skin lesions flush with normal skin, a score of 1 point indicates skin lesions slightly elevated above normal skin surface, a score of 2 points indicates moderate elevation of skin lesions, a score of 3 points indicates thickened skin lesions with obvious elevation, and a score of 4 points indicates highly thickened skin lesions with prominent elevation.
as §4

[4] = system: dry eye syndrome model New Zealand rabbits; assay: Dry eye syndrome experiment (benzalkonium chloride model): corneal fluorescein sodium staining; type: in vivo, male New Zealand White rabbits; conditions: for inflammatory response on the ocular surface / ocular symptoms: compared with the model group
Method: Pharmacological Example 6: Therapeutic Pharmacodynamic Experiment on Dry Eye Syndrome in New Zealand Rabbits
Positive control drug: Fluorometholone Eye Drops (specification: 5 mL/5 mg; Santen Pharmaceutical (CHINA) Co., Ltd.; Lot No.: 1FM6625) was used as the positive control drug and stored at room temperature protected from light until use.
Thirty male New Zealand White rabbits (conventional grade) were prepared. Six rabbits were randomly selected as the blank control group, and the remaining animals were administered 0.1% benzalkonium chloride to the left eye twice daily (morning and evening) , 10 µL/animal each time. […] During the administration, all animals except the blank control group were administered 10 µL of 0.1% benzalkonium chloride to the left eye once daily to maintain dry eye symptoms..
• Test time: D3, D7, D15; • Test animals: All animals were tested before grouping; all enrolled surviving animals were tested after administration; • Test method: 2 µL of 1% Fluorescein sodium was dropped into the conjunctival sac. After 5 s, the excess fluorescein was rinsed with 0.9% normal saline. The conjunctival staining was observed under a slit lamp with cobalt blue diffused light.
The normality and homogeneity of variance were tested by Levene's test. If there was no statistical significance (P > 0.05), one-way analysis of variance (ANOVA) was used for statistical analysis. If ANOVA was statistically significant (P ≤ 0.05), LSD test (parametric method) was used for comparative analysis. If the variance was heterogeneous (P ≤ 0.05), Kruskal-Wallis test was used. If the Kruskal-Wallis test was statistically significant (P ≤ 0.05), Dunnett's test (nonparametric method) was used for comparative analysis.

[5] = system: inflammatory cytokines (TNF-α); assay: Anti-uveitis pharmacodynamic experiment (LPS model): inflammatory cytokines in aqueous humor (ELISA); type: in vivo, male SD rats; conditions: values not given
Summary of the method: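 Male SD rats given uveitis by single subplantar injection of LPS (Salmonella) 1 mg/kg, then bilateral ocular dosing of 40 µL 5 mg/5 mL ophthalmic suspension three times daily for 2 days.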

[6] = bronchoalveolar lavage fluid, 0.3 mg/mL, 50 µL intratracheally once daily for 3 days

| Structure (SMILES) | Effects on inflammatory cytokines in bronchoalveolar lavage fluid of mice [1] | Target selectivity MR/GR [2] | level of IL-17 / inflammatory cytokines in psoriasis model mice (IL-17) | Effects on airway hyperresponsiveness (Penh values) in mice (asthma model mice) | plasma instability [3] | PASI scores (psoriasis model mice) | inflammatory response on the ocular surface / ocular symptoms [4] | inflammatory cytokines in aqueous humor [5] | pEC50 [2] | also measured |
| --- | --- | --- | --- | --- | --- | --- | --- | --- | --- | --- |
| C[C@]12C=CC(=O)C=C1CC[C@H]1[C@@H]3C[C@H]4OC(c5ccc(CSC6CCOC6=O)cc5)O[C@@]4(C(=O)CO)[C@@]3(C)C[C@H](O)[C@@]12Cl (stereo partly drawn) [Compound 23, (6aS,6bR,7S,8aS,8bS,11aR,12aS,12bS)-6b-Chloro-7-hydroxy-8b-(2-hydroxyacetyl)-6a,8a-dimethyl-10-(4-(((2-oxotetrahydrofuran-3-yl)thio)methyl)phenyl)-1,2,6a,6b,7,8,8a,8b,11a,12,12a,12b-do decahydro-4H-naphtho[2',1':4,5]indeno[1,2-d][1,3]dioxol-4-one] | extremely significantly decreased the levels of IL-6 and IL-12 in mice | > 2.4×10^5 | significantly decreased the level of IL-17 | significantly decreased the Penh values in mice | exhibited the characteristic of plasma instability | PASI scores significantly decreased on day 7 | significantly inhibited the inflammatory response on the ocular surface on day 15 | suppressed inflammatory cytokines in aqueous humor | – | IL-6 [1, 6]: 11.1 ± 5.5 pg/mL; IL-12 [1, 6]: 7.0 ± 3.9 pg/mL; EC50 ([2]; EC50 of agonist activity, HEK293 reporter cells, top concentration 50 µM, read-out: Nuclear receptor enzyme activity (nM) MR): > 50000 nM; IL-17 (IL-17; serum, day 8 of modeling, 0.2 g cream per mouse daily for 7 days): 19.56 ± 8.13 pg/mL; Penh values in mice, Methacholine concentration (mg/ml) 0 (asthma model mice; 0.3 mg/mL, 50 µL intratracheally once daily for 3 days, methacholine 0 mg/ml): 1.12 ± 0.30; Penh values in mice, Methacholine concentration (mg/ml) 6.25 (asthma model mice; 0.3 mg/mL, 50 µL intratracheally once daily for 3 days, methacholine 6.25 mg/ml): 1.55 ± 0.29; Penh values in mice, Methacholine concentration (mg/ml) 12.5 (asthma model mice; 0.3 mg/mL, 50 µL intratracheally once daily for 3 days, methacholine 12.5 mg/ml): 1.84 ± 0.38; PASI score (psoriasis model mice; day 8 of modeling, 0.2 g cream per mouse daily for 7 days (compounds 1 mg/g, fluticasone propionate 0.5 mg/g)): 3.8 ± 1.0; Corneal fluorescein sodium staining score D3 ([4]; D3, 1 mg/mL, 50 µL/eye, 3 times a day for 14 days): 2.17 ± 0.98; Corneal fluorescein sodium staining score D7 ([4]; D7, 1 mg/mL, 50 µL/eye, 3 times a day for 14 days): 1.0 ± 0.98; Corneal fluorescein sodium staining score D15 ([4]; D15, 1 mg/mL, 50 µL/eye, 3 times a day for 14 days): 1.0 ± 0.63" |
| C[C@]12C=CC(=O)C=C1[C@@H](F)C[C@H]1[C@@H]3C[C@H]4OC(c5ccc(CSC6CCOC6=O)cc5)O[C@@]4(C(=O)OCF)[C@@]3(C)C[C@H](O)[C@@]12F (stereo partly drawn) [Compound 36, Fluoromethyl (2S,6aS,6bR,7S,8aS,8bS,11aR,12aS,12bS)-2,6b-difluoro-7-hydroxy-6a,8a-dimethyl-4-oxo-10-(4-( ((2-oxotetrahydrofuran-3-yl)thio)methyl)phenyl)-1,2,4,6a,6b,7,8,8a,11a,12,12a,12b-dodecahydro-8bH-naphtho[2',1':4,5]indeno[1,2-d][1,3]dioxole-8b-carboxylate] | pharmacological effects similar to those of compound 23 | > 4.2×10^5 | significantly inhibited inflammatory cytokines in the skin of psoriasis model mice | significantly decreased the Penh values in mice | exhibited the characteristic of plasma instability | significantly decreased PASI scores on day 7 | significantly alleviated the ocular symptoms in dry eye syndrome model New Zealand rabbits | suppressed inflammatory cytokines in aqueous humor | < 4.30 | – |
| C[C@]12C=CC(=O)C=C1[C@@H](F)C[C@H]1[C@@H]3C[C@H]4OC(c5ccc(CSC6CCOC6=O)nc5)O[C@@]4(C(=O)CO)[C@@]3(C)C[C@H](O)[C@@]12F (stereo partly drawn) [Compound 46, (25,6aS,6bR,78,8a8,8bS,11aR,12a8,12b8S)-2,6b-Difluoro-7-hydroxy-8b-(2-hydroxyacetyl)-6a,8a-dimethyl-10-(6-(((2-oxotetrahydrofuran-3-yl)thio)methyl)pyridin-3-yl)-1,2,6a,6b,7,8,8a,8b,11a,12, 12a,12b-dodecahydro-4H-naphtho[2',1':4,5]indeno[1,2-d][1,3]dioxol-4-one] | pharmacological effects similar to those of compound 23 | – | significantly inhibited inflammatory cytokines in the skin of psoriasis model mice | significantly decreased the Penh values in mice | exhibited the characteristic of plasma instability | significantly decreased PASI scores on day 7 | significantly alleviated the ocular symptoms in dry eye syndrome model New Zealand rabbits | suppressed inflammatory cytokines in aqueous humor | – | target selectivity ([2]; MR/GR and PR/GR, same experimental conditions): target selectivity comparable to that of compound 23 |
| C[C@]12C=CC(=O)C=C1CC[C@H]1[C@@H]3C[C@H]4OC(c5ccc(COC6CCOC6=O)cc5)O[C@@]4(C(=O)CO)[C@@]3(C)C[C@H](O)[C@@]12Cl (stereo partly drawn) [Compound 22, (6aS,6bR,7S,8aS,8bS,11aR,12aS,12bS)-6b-Chloro-7-hydroxy-8b-(2-hydroxyacetyl)-6a,8a-dimethyl-10-(4-(((2-oxotetrahydrofuran-3-yl)oxy)methyl)phenyl)-1,2,6a,6b,7,8,8a,8b,11a,12,12a,12b-do decahydro-4H-naphtho[2',1':4,5]indeno[1,2-d][1,3]dioxol-4-one] | pharmacological effects similar to those of compound 23 | > 9.1×10^4 | significantly inhibited inflammatory cytokines in the skin of psoriasis model mice | significantly decreased the Penh values in mice | exhibited the characteristic of plasma instability | significantly decreased PASI scores on day 7 | significantly alleviated the ocular symptoms in dry eye syndrome model New Zealand rabbits | suppressed inflammatory cytokines in aqueous humor | < 4.30 | – |

Source: patent EP4635969A1, “NOVEL GLUCOCORTICOID, METHOD FOR PREPARING SAME, AND USE THEREOF” (Tianjin Pharmaceutical Biotechnology Co., Ltd., priority 2022, dated 2024)
